Assay in all cases: Eurofins kinase selectivity profile against 380 other human recombinant kinases (Table S2)
What all share (assay type): biochemical

The target in experiment [1] is T1, 380 human recombinant protein kinases (Homo sapiens, UniProt P54753).
T1 construct: purchased Eurofins (Celle Lévescault)
T1 sequence (P54753 34-998): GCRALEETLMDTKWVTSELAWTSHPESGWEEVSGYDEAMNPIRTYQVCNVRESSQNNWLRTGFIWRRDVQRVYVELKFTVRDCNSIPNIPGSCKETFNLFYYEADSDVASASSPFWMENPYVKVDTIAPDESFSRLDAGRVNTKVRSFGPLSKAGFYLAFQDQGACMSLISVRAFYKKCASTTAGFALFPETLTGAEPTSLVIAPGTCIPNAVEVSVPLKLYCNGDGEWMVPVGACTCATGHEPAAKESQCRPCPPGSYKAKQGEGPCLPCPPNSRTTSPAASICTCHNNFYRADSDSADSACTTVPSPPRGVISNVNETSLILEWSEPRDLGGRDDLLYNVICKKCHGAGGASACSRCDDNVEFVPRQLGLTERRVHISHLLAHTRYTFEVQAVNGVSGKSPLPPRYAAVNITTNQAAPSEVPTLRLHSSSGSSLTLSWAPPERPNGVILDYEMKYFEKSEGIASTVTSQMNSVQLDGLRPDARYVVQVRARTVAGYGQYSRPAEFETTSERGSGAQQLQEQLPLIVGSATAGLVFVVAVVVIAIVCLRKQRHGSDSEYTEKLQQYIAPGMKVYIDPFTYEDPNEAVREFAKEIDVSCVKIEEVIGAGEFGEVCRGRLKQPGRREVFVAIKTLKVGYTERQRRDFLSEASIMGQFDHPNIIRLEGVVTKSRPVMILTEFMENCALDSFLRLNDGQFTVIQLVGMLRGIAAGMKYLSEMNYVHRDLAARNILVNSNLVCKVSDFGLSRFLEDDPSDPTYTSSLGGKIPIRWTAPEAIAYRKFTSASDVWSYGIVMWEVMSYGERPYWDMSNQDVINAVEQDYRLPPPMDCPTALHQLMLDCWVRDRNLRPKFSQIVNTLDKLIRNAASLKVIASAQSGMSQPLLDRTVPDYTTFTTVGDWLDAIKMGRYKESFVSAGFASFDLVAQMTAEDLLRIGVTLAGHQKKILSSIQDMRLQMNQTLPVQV
The conditions noted are these: EphB3(h), read-out: Inhibition rate. An outline of the steps: (§1)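 Off-target profiling: one compound assayed by a commercial provider over 380 recombinant human protein kinases at various concentrations.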

Experiment [2] addresses T2, 380 human recombinant protein kinases (Homo sapiens, UniProt P20794).
T2 construct: purchased Eurofins (Celle Lévescault)
T2 sequence (P20794 1-623): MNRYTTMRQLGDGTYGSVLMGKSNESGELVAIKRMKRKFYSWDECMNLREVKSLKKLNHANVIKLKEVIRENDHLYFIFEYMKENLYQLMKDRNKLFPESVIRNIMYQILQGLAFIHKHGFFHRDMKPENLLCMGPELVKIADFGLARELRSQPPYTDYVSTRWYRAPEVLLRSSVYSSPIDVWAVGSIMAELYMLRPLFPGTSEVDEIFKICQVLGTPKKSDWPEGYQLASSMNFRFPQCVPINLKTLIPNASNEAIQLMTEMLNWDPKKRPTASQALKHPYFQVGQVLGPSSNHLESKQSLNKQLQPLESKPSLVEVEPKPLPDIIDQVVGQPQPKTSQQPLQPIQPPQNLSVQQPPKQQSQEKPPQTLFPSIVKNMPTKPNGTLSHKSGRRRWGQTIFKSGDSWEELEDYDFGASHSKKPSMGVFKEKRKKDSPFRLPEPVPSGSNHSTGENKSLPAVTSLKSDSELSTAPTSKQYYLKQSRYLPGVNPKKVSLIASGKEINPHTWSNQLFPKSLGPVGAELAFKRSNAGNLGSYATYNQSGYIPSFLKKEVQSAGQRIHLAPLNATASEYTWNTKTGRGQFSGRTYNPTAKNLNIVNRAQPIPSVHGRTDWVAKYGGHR
The conditions noted are these: MAK(h), read-out: Inhibition rate. An outline of the steps: as §1

Experiment [3] has as its target T3, 380 human recombinant protein kinases (Homo sapiens, UniProt Q9H2G2).
T3 construct: purchased Eurofins (Celle Lévescault)
The conditions noted are these: SLK(h), read-out: Inhibition rate (%). In a few lines: as §1

The target of experiment [4] is T4, 380 human recombinant protein kinases (Homo sapiens, UniProt Q86UE8).
T4 construct: purchased Eurofins (Celle Lévescault)
T4 sequence (Q86UE8 whole entry): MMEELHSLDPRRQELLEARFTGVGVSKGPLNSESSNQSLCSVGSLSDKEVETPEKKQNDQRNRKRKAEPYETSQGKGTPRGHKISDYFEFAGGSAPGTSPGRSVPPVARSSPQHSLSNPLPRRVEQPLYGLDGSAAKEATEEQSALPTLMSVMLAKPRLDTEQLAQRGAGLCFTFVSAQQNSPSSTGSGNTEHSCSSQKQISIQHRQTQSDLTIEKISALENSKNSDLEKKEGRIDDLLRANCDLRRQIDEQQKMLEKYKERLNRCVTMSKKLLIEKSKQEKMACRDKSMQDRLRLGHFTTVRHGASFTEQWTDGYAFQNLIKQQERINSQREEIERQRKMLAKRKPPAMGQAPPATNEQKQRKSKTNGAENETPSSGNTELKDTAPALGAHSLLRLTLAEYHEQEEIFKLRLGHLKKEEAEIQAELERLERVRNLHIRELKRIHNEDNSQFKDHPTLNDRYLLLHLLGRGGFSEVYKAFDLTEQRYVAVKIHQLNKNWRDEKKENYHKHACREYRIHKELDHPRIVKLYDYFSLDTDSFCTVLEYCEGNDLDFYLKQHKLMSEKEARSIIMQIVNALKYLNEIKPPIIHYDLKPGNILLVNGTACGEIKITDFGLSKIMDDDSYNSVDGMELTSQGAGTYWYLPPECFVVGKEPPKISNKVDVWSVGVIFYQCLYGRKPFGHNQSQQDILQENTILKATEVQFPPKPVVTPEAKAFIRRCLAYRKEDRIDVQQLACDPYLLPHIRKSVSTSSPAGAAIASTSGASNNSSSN
The conditions noted are these: TLK2(h), read-out: Inhibition rate (%). In a few lines: as §1

In experiment [5] the target is T5, 380 human recombinant protein kinases (Homo sapiens, UniProt O60285).
T5 construct: purchased Eurofins (Celle Lévescault)
T5 sequence (O60285 1-661): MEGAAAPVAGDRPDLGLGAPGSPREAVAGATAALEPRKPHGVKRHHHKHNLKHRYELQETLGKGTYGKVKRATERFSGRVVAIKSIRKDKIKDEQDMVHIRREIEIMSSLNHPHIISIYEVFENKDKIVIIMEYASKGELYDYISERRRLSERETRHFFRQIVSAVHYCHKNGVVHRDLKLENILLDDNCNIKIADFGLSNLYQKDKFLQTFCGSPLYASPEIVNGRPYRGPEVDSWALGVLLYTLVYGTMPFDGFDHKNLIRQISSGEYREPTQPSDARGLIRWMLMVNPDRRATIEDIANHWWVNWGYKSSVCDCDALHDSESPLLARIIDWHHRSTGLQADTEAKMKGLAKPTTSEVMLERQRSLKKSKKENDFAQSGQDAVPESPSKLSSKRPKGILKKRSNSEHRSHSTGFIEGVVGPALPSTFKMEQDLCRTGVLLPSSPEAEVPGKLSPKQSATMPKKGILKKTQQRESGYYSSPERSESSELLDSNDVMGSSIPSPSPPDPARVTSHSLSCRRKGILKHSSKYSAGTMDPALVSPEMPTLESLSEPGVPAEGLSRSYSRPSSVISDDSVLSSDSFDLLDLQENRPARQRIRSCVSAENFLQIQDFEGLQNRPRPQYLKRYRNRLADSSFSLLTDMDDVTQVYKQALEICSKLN
The conditions noted are these: ARK5(h), read-out: Inhibition rate. An outline of the steps: as §1

T3 sequence (Q9H2G2 whole entry): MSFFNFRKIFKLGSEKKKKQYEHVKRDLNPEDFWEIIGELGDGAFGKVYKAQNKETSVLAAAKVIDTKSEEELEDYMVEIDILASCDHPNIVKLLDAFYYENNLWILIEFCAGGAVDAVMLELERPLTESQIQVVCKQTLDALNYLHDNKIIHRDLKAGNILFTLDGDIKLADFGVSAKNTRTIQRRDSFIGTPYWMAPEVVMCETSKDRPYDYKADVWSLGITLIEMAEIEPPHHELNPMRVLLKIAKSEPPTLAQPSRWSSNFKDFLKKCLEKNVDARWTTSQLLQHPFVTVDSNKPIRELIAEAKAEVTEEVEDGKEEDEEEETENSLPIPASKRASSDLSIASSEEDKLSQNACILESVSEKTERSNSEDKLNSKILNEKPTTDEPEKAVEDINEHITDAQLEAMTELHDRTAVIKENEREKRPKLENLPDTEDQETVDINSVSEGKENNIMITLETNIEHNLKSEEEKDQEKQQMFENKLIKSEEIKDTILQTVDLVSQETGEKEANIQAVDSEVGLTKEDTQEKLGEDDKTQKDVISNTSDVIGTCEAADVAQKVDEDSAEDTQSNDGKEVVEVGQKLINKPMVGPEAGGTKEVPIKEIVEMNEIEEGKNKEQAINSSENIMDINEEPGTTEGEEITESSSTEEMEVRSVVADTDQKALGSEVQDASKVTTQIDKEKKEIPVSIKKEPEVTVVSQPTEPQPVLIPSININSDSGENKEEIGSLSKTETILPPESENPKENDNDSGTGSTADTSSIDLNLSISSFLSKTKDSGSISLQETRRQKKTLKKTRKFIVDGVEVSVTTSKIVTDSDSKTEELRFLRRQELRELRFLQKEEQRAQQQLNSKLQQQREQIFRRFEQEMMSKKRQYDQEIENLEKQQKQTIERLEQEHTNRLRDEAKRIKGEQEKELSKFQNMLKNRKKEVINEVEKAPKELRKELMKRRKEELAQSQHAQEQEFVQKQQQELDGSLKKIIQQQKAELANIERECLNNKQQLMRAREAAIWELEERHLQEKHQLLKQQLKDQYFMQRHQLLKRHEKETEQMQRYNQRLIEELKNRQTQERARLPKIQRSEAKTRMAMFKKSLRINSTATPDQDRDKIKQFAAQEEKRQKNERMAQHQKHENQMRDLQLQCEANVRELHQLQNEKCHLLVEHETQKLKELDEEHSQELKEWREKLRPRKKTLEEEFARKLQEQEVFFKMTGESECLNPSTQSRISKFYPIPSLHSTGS

In general, inhibition refers to the relative decrease from the control value, in per cent. For the compound `C=CC(=O)Nc1cc(-c2cc(-c3cc4c([nH]3)CCNC4=O)ccn2)ccc1OC(F)(F)F` [compound 11], the inhibition at 0.01 µM in experiment [1] (10 nM) was 3%; in experiment [2] (10 nM), -9%; in experiment [3] (10 nM), 1%; in experiment [4] (10 nM) it was 13%; in experiment [5] (10 nM), -2%. Further, the inhibition at 0.1 µM in experiment [1] (100 nM) was -12%; in experiment [2] (100 nM), -1%; in experiment [3] (100 nM), 4%; in experiment [4] (100 nM), 1%; in experiment [5] (100 nM), 14%. In addition, the inhibition at 1 µM is -1% in experiment [1] (1000 nM); -2% in experiment [2] (1000 nM); 4% in experiment [3] (1000 nM); -2% in experiment [4] (1000 nM); 28% in experiment [5] (1000 nM).

For the origin of these results see paper PMC11233931, “Remodeling tumor‐associated macrophage for anti‐cancer effects by rational design of irreversible inhibition of mitogen‐activated protein kinase‐activated protein kinase 2” (MedComm, 2024).
